This is an account of results in patent US12441693B2, “Targeting STAT sumoylation to enhance immune responses” (THE GEORGE WASHINGTON UNIVERSITY, priority 2018, dated 2025).

Each structure is given as a SMILES string. Where two headings read alike, the source gives them in different places.

In one series the test system is NK cells. The procedure:
To determine if STAT SUMOylation increases Gzm B expression in NK cells, isolated human NK cells were analyzed after a 3-day incubation with either IL-2, IL-15, HODHBt, IL-2+IL-15, HODHBt+IL-2, HODHBt+IL-15, or HODHBt+IL-2+IL-15.
To further characterize the effects of STAT SUMOylation inhibition in NK cell function, primary human NK cells were isolated and cultured with IL-15 in the presence or absence of HODHBt. 48 hours later, cells were phenotyped by flow cytometry.
To characterize the induction of other proteins known to be important for the cytolytic activity of NK cells, primary human NK cells were isolated from 6 male and 6 female donors and cultured with IL-15 in the presence or absence of HODHBt. 48 hours later, levels of Granzyme A (FIG. 18A), Perforin (FIG. 18B), Granulysin (FIG. 18C), TRAIL (FIG. 18D) and Fas ligand (FASL) (FIG. 18E) were analyzed by flow cytometry.
Antibody-dependent cell-mediated cytotoxicity (ADCC) is mediated by the recognition of an antibody bound to a cell through an Fc receptor present in NK cells, mostly CD16 (FCGR3A). To address whether inhibiting STAT SUMOylation alters CD16 expression in the surface of NK cells, freshly isolated NK cells were treated with either IL-15, HODHBt or a combination of both for 48 hours and surface expression of CD16 was measured by flow cytometry.
Since IL-15 activated STATs, it was hypothesized that STATs, and in particular STAT1, was controlling expression of CXCR5 (C—X—C Motif Chemokine Receptor 5) and that inhibiting STAT SUMOylation enhances CXCR5 expression and promotes migration towards a CXCL13 (C—X—C Motif Chemokine Ligand 13) gradient. CXCL13 controls homing of lymphocytes to follicles in lymph nodes; however whether this mechanism of regulation exists in human NK cells and whether IL-15 controls expression were unknown. To address which one of the two scenarios was potentially playing a role in the presence of NK cells within the follicles, human NK cells were treated with IL-15, HODHBt or a combination of both for 48 hours. Surface expression of CXCR5 and viability were next measured by flow cytometry.
To phenotype the cells, 1×10^5 cells were stained with a viability dye (Fixable Viability Dye eFluor 450, Affymetrix, eBioscience, San Diego, CA) and the surface marker-specific mAb specific for human: PE-anti-CD25 (Caltag, Burlingame, CA) and PE-anti-CD69 (Caltag, Burlingame, CA) followed by flow cytometric analysis in a BD FACScanto II flow cytometer using the FACSDiva software (Becton Dickinson, Mountain View, CA) and analyzed using FlowJo (Tree Star Inc., Ashland, OR).

A further series relates to STAT1, STAT5, Mx1. Description: Western blot of primary CD4 T cells (pSTAT1, pSTAT5, Mx1). The format is cell-based, human. The following applies: increased concentrations. The procedure: (§1) In general, samples are prepared and loaded on to a gel and during the electrophoresis the negatively charged proteins move toward the positively charged anode. In order to further analyze the proteins, they are transferred onto a membrane in a procedure called blotting. After the transfer, the membrane is blocked in order to prevent unwanted membrane-protein interaction in the following steps. To visualize the protein of interest the membrane is commonly first probed using a primary protein-specific antibody followed by a labeled secondary antibody used for detection. An image is taken of the membrane and the result is analyzed.
In general terms: In western blotting, separated proteins are transferred to a membrane and probed.

Another series concerns STAT5. The following applies: Bosque et al., Cell Rep. 2017; cited from earlier work.
The next series relates to STAT5, STAT1, STAT3. In words: Western blot of phosphorylated STATs in NK cells. The format is cell-based, human. On the procedure:
Next, NK cells were cultured with IL-15 in the presence or absence of HODHBt and levels of phosphorylated STATs were measured by Western blot.
as §1

Series [1] concerns STAT1, STAT2, STAT3, STAT4, STAT5A, STAT5B, STAT6. In words: Western blot of STAT phosphorylation in 293FT HEK cells transfected with V5-tagged STATs. The format is cell-based. The following applies: 24 hours, vs DMSO. On the procedure:
as §1

On to `O=c1c2ccccc2nnn1O` [HODHBt], for which the “Gzm B expression in NK cells (percentage of cells and MFI)” value in the series with NK cells (3-day incubation, with IL-2, IL-15 or both) is given as “increased Gzm B expression in NK cells treated with IL-2, IL-15 or a combination of both”. For the same compound, in the series with NK cells (48 hours, with or without IL-15), the “surface expression of CD16 on NK cells” value is on record as “sufficient to increase the levels of CD16 expression in NK cells independent of the presence of IL-15”. For the same compound, in the series with NK cells (IL-15 in the presence of HODHBt, 48 hours), the “surface expression of CXCR5 on NK cells” value is given as “dramatically increased in the presence of HODHBt”. The “expression of GZMB in NK cells” value in the series with NK cells (combination of IL-15 and HODHBt, 48 hours) is “greatly increased the expression of GZMB”. The “expression of Granzyme A, Perforin, Granulysin, TRAIL and FASL in NK cells” value in the series with NK cells (combination of IL-15 and HODHBt, vs IL-15 control, 48 hours) was “enhanced gene expression above IL-15 control”. For the same compound, the “viability / survival of NK cells” value in the series with NK cells (human, 48 h) is given as “did not affect the viability of NK cells either alone or in combination with IL-15”. In addition, the “surface expression of CD69 and CD25 on NK cells” value in the series with NK cells (in combination with IL-15, vs IL-15 alone, 48 hours) was “enhanced the expression of both surface markers over IL-15 alone”. For the same compound, in the series on NK cells (single agent, 48 hours), the “surface expression of CD25 on NK cells” value was “did not change the surface expression” and the “surface expression of CD69 on NK cells” value is recorded as “did not change the surface expression of CD69”. Moreover, the “expression of GZMB in NK cells” value with NK cells (single agent, vs media control, 48 hours) is “did not have any effect over media control”. Besides, in the series on STAT1, STAT5, Mx1, the “levels of myxovirus resistance 1 (Mx1)” value is given as “increased the levels”; the “levels of phosphorylated STAT1 and STAT5” value is “increased the levels of phosphorylated STAT1 and STAT5”. The “phosphorylation and transcriptional activity of STAT5” value with STAT5 was “enhance phosphorylation and the transcriptional activity of STAT5”. Further, the “phosphorylation of STAT1 in NK cells” value in the series on STAT5, STAT1, STAT3 (HODHBt alone) was “increased the phosphorylation levels of STAT1”. In the series on STAT5, STAT1, STAT3 (after IL-15 treatment), the “phosphorylation of STAT5 in NK cells” value is listed as “increased the levels of phosphorylation of STAT5 after IL-15 treatment”. Moreover, in the series with STAT5, STAT1, STAT3 (with IL-15, vs IL-15), the “phosphorylation of STAT1 and STAT3 in NK cells” value was “enhanced the levels of phosphorylation of STAT1 and STAT3 induced by IL-15”. Further, the “phosphorylation levels of STATs” value in series [1] is recorded as “increased phosphorylation levels of all the other STATs”.
